Laboratory results taken from patent EP3666770A1, “NOVEL HETEROCYCLIC COMPOUNDS AS CDK8/19 INHIBITORS” (Joint Stock Company "Biocad", priority 2017, dated 2019).
Where two headings read alike, the source gives them in different places.

How the values were obtained:
[1] = Chemical stability in simulated gastric fluid (SGF); type: physicochemical; settings: SGF without enzymes, pH=1,4; 10 µm; 2 hours at 37°C; substance amount in % after thermostatting
Experimental: (§1) Chemical stability of the compounds described herein was determined in simulated gastric fluid and human blood plasma.
SGF concentrate without enzymes, pH=1,4 (Sigma Ireland, cat#01651) was used as simulated gastric fluid. Initial candidate solution (10 mM in DMSO) was diluted with an SGF working solution to a concentration of […] (test solution). The test solution was incubated in a dry block thermostat for 2 hours at 37°C. HPLC with Agilent 1200 liquid chromatography system (Agilent, USA) was employed to determine peak areas of the compounds in test samples, said peak areas corresponding to the initial test time (prior to incubation) and the final test time (after incubation in a dry block thermostat for 2 hours at 37°C). Chromatographic analysis was performed in a gradient elution regime with a flow rate of 1 mL/min. Substance amount in % in a sample after thermostatting was determined.

KG-1 = assay: Cell-based antiproliferative test (AlamarBlue), KG-1; settings: 120 h incubation, average values of several tests, read-out: KG-1 IC50, mkM
Experimental: (§2) Antiproliferative activity of CDK8 inhibitors according to the present invention was measured in a cell-based test on continuous cell cultures MV4-11 (biphenotypic myelomonocytic leukemia, ATCC® CRL-9591™), KG-1 (acute myeloid leukemia, ATCC® CCL-246™), HL-60 (acute promyelocytic leukemia, ATCC® CCL-240™) using a vital stain AlamarBlue (ThermoFisher, #DAL1100). The cells were grown in RPMI-1640 (PanEco, #C330p) medium with addition of 10% FBS (Gibco, #16140-071); washed and resuspended in culture medium with 10% FBS (Gibco, #16140-071) in 96-well culture plates (Corning, #3599) with ≈ 10 ×10^3 cells in […] of medium per well. The compounds in question were dissolved in DMSO and diluted with a medium with 10% FBS (Gibco, #16140-071) to a final concentration ranging form 0 to 100 µM. […] of diluted compounds were then added to each well (final DMSO concentration was less than 1%) and incubated under 5% CO2 atmosphere at 37°C for 120 h. After incubating, 15 µL of AlamarBlue (ThermoFisher, #DAL1100) reagent was added per well, contents of plates were mixed in an orbital shaker (Biosan, Latvia) and further incubated for 3-5 h at 37°C under 5% CO2 atmosphere. Number of living cells was estimated using a microplate spectrophotometer (Tecan Infinite M200Pro, Switzerland) measuring fluorescent signal at the excitation wavelength (λEx) of 540 nm and emission wavelength (λEm) of 590 nm.
(§3) IC50 was calculated using Magellan 7.2 software (Tecan, Switzerland) approximating experimental points by four-parameter logistic model with the optimization by Levenberg-Marquardt (table 7, table 7).

[2] = General cytotoxicity test on HepG2 cells; type: cell-based; settings: human, 72 h incubation, 200 to 0.78 µM, average values of several tests, read-out: Hep-G2 CC50, mkM
Experimental: Cell viability was assessed using the above method. Table 6. […] The results are presented as average values of activity obtained in several tests.

[3] = Chemical stability in human blood plasma; type: in vitro ADME; settings: pooled human blood plasma; 10 µM; 4 hours at 37°C; substance amount in % after thermostatting
Experimental: as §1
Determination of stability in human blood plasma was performed using pooled human blood plasma taken from ten healthy donors. The initial candidate solution (10 mM in DMSO) was diluted with pooled blood plasma to a concentration of […] (test solution). The test solution was incubated in a dry block thermostat for 4 hours at 37°C. HPLC with Agilent 1200 liquid chromatography system (Agilent, USA) was employed to determine peak areas of the compounds in test samples, said peak areas corresponding to the initial test time (prior to incubation) and the final test time (after incubation in a dry block thermostat for 4 hours at 37°C), proteins were preliminarily precipitated with acetonitrile. Chromatographic analysis was performed in a gradient elution regime with a flow rate of 1 mL/min. Substance amount in % in a sample after thermostatting was determined.

HL-60 = assay: Cell-based antiproliferative test (AlamarBlue), HL-60; settings: Homo sapiens, HL-60, 120 h, 120 h incubation; average values of several tests; read-out: HL-60 IC50, mkM
Experimental: as §2, §3

MV4-11 = assay: Cell-based antiproliferative test (AlamarBlue), MV4-11; settings: 120 h incubation, average values of several tests, read-out: MV-4-11 IC50, mkM
Experimental: as §2, §3

[4] = Enzyme stability in human liver microsomes; type: in vitro ADME; settings: pH 7.4; 0,5 mg/mL pooled human liver microsomes; 10 µM compound; 37°C; pH=7,4
Experimental: Measuring of candidates' enzyme stability enabled estimation of the stability of the present compounds towards the action of enzymes in liver microsomes.
Enzyme degradation rate was measured by incubating the reaction mixture in a dry block thermostat at 37°C, said reaction mixture comprising 0,5 mg/mL of pooled human liver microsomes (XenoTech, USA, cat#H2620), 10 µM compound, 2 mM β-nicotinamide adenine dinucleotide (Carbosynth, UK, cat#NN10871) and 4 mM magnesium chloride in 0,1 M sodium-phosphate buffer, pH=7,4. The reaction was quenched with acetonitrile (100 µL of acetonitrile / 100 µL of the reaction mixture). After quenching, the samples were centrifuged at 10000 rpm for 10 minutes. Supernatant fluid was tested by chromatographic technique using Agilent1200 (Agilent, USA). Chromatographic analysis was performed in a gradient elution regime with a flow rate of 1 mL/min. A graph of the logarithm of substance's peak area as a function of time was made. The dependent factor of the line corresponded to the elimination rate constant K based on which the drug's half-life t1/2 and degradation rate CLint were calculated: Elimination rate constant (k) = (−gradient) [formula] [formula] V(μL/mg) = (volume of incubation(μL))/(protein in the incubation(mg)) [formula] [formula]

[5] = Permeability through Caco-2 cell monolayer; type: in vitro ADME; settings: human, Caco-2; for Papp A→B at 2 h, 10 µM: A->B transfer, pH 6.5 -> pH 7.4, 2 hours at 37 °C; for efflux ratio at 2 h, 10 µM: efflux = Papp B-A / Papp A-B
Experimental: Estimation of permeability through Caco-2 cell monolayer enables assessment of the ability of the substances to penetrate through biological membranes by means of both active and passive transport.
Intestinal epithelial cells Caco-2 were grown on filter inserts (pore size 0.4 µm, BD Falcon with High Density) for 21 days; monolayer integrity was then checked using Lucifer Yellow (Sigma-Aldrich, USA) according to the standard protocol. In A->B transfer ("intestinal lumen" - "blood stream" transfer), solutions of the test substances in buffer, pH 6.5 (HBSS, 10 mM HEPES, 15 mM glucose) at a concentration of 10 µM were added to the upper chamber; whereas the lower chamber was filled with buffer, pH 7.4 (HBSS, 10 mM HEPES, 15 mM Glucose, 1% BSA). In B->A transfer ("blood stream" - "intestinal lumen" transfer), the upper chamber was filled with buffer, pH 6.5, whereas the solutions of the test substances in buffer, pH 7.4, at a concentration of 10 µM were added to the lower chamber. A highly permeable substance propranolol was used as a control.
After 2 hours incubation at 37 ° C under an atmosphere containing 5% CO2, the amounts of the test substances in the upper and lower chambers were measured by HPLC using an Agilent1200 HPLC system (Agilent, USA), proteins were preliminarily precipitated with acetonitrile. Chromatographic analysis was performed in a gradient elution regime with a flow rate of 1 mL/min. The peak areas corresponding to the compounds were detected on chromatograms.
The value was calculated using the formula: efflux = Papp B−A /Papp A−B , [formula] where • Papp A-E - the value of permeability direct analysis A→ B; • Papp B-A - the value of the permeability of the reverse analysis B→ A.

Row | Structure (SMILES) | Stability in SGF, % [1] [%] | IC50 (KG-1; Homo sapiens, KG-1) [µM] | CC50 at 72 h ([2]; HepG2 cells) [µM] | Stability in blood plasma, % [3] [%] | IC50 (HL-60) [µM] | IC50 (MV4-11; Homo sapiens, MV4-11, 120 h) [µM] | microsomal CLint at 10 µM [4] [µL/min/mg] | IC50 (KG-1) [µM] | IC50 (MV4-11) [µM] | Papp A→B at 2 h, 10 µM [5] [×10⁻⁶ cm/s] | efflux ratio at 2 h, 10 µM [5] | CC50 at 72 h [2] [µM]
1 | O=C(c1ccc2ncn(-c3ccc(-c4cn[nH]c4)cc3)c2c1)N1CCC1 [CDK8-1-5, (1-(4-(1H-Pyrazol-4-yl)phenyl)-1H-benzo[d]imidazol-6-yl)(azetidin-1-yl) methanone] | 99.5 | 4.71 | 81.1 | 98.1 | > 60 | 1.24 | – | – | – | – | – | –
2 | NC(=O)c1ccc(-n2cnc3ccc(N4CC(C(=O)Nc5ccccc5)C4)cc32)cc1 [CDK8-1-6, 1-(1-(4-Carbamoylphenyl)-1H-benzo[d]imidazol-6-yl)-N-phenylazetidine-3-carboxamide] | 98.9 | > 10 | > 100 | 100 | 8.18 | 1.64 | 23.4 | – | – | – | – | –
3 | Cn1cc(-c2ccc(-n3cnc4ccc(C(=O)N5CCC5)cc43)cc2)cn1 [CDK8-1-18, Azetidin-1-yl(1-(4-(1-methyl-1H-pyrazol-4-yl)phenyl)-1H-benzo[d]imidazol-6-yl) methanone] | 100 | 2.13 | > 100 | 100 | > 100 | 4.8 | 14.6 | – | – | – | – | –
4 | COC1CN(C(=O)c2cnc3c(N)ncc(-c4ccc(-c5cnn(C)c5)cc4)c3c2)C1 [CDK8-3-34, (8-Amino-5-(4-(1-methyl-1H-pyrazol-4-yl)phenyl)-1,7-naphthyridin-3-yl)(3-methoxyazetidin)methanone] | – | 0.005 | – | – | – | – | – | – | – | – | – | –
5 | Cn1cc(-c2ccc(-c3cncc4ncc(C(=O)NC5CC5)cc34)cc2)cn1 [CDK8-3-37] | – | – | – | – | – | – | – | 0.004 | 0.022 | – | – | –
6 | Cn1cc(-c2ccc(-c3cnc(N)c4ncc(C(=O)NC5CC5)cc34)cc2)cn1 [CDK8-3-38, 8-Amino-N-cyclopropyl-5-(4-(1-methyl-1H-pyrazol-4-yl)phenyl)-1,7-naphthyridine-3-carboxamide] | – | < 0.01 | – | – | – | – | – | – | – | – | – | –
7 | COc1cc(-c2cnc3[nH]cc(C(=O)c4ccncc4)c3c2)ccc1N1CCOCC1 [CDK8-4-31, (5-(3-Methoxy-4-morpholinophenyl)-1H-pyrrolo[2,3-b]pyridin-3-yl) (pyridin-4-yl) methanone] | 99.9 | 21.7 | – | – | – | 0.61 | – | – | – | 36.1 | 0.35 | > 100
8 | O=C(c1ccccn1)c1c[nH]c2ncc(-c3ccc(N4CCOCC4)cc3)cc12 [CDK8-4-36, (5-(4-Morpholinophenyl)-1H-pyrrolo[2,3-b]pyridin-3-yl) (pyridin-2-yl)methanone] | 100 | 1.59 | 17 | 100 | – | 0.46 | – | – | – | – | – | –
9 | O=C(c1cccnc1)c1c[nH]c2ncc(-c3ccc(N4CCOCC4)cc3)cc12 [CDK8-4-37, (5-(4-Morpholinophenyl)-1H-pyrrolo[2,3-b]pyridin-3-yl) (pyridin-3-yl)methanone] | 100 | 5 | 118 | 100 | – | 0.13 | – | – | – | 8.63 | 1.08 | –
10 | O=C(c1ccncc1)c1c[nH]c2ncc(-c3ccc(N4CCOCC4)cc3)cc12 [CDK8-4-38, (5-(4-Morpholinophenyl)-1H-pyrrolo[2,3-b]pyridin-3-yl) (pyridin-4-yl)methanone] | 100 | 60 | > 100 | 100 | – | 0.39 | 20 | – | – | 13.9 | 0.28 | –
11 | CN(C)c1ccc(-c2cnc3[nH]cc(C(=O)c4cccnc4)c3c2)cc1 [CDK8-4-39, (5-(4-(Dimethylamino)phenyl)-1H-pyrrolo[2,3-b]pyridin-3-yl) (pyridin-3-yl)methanone] | 100 | 27.7 | > 100 | 100 | – | 0.19 | 23.6 | – | – | – | – | –
12 | CN(C)c1ccc(-c2cnc3[nH]cc(C(=O)c4ccncc4)c3c2)cc1 [CDK8-4-40, (5-(4-(Dimethylamino)phenyl)-1H-pyrrolo[2,3-b]pyridin-3-yl) (pyridin-4-yl) methanone] | 100 | 25 | > 100 | 100 | – | 5.56 | 35 | – | – | – | – | –
13 | Cn1cc(-c2ccc(-c3ccc4nccc(C(=O)N5CCCCC5)c4c3)cc2)cn1 [CDK8-5-8, (6-(4-(1-Methyl-1H-pyrazol-4-yl)phenyl)quinolin-4-yl) (piperidin-1-yl)methanone] | 100 | 17.5 | > 50 | 98.2 | 24.8 | 3.73 | – | – | – | – | – | –
